The source made the active and inactive calls. No cut-off for these calls is given here.
Columns and labels:
[1] = Half in rat liver microsomes; type: ADME
[2] = Half in human liver microsomes; type: ADME
Mus musculus [3] = assay: Inhibition of JAK2 V617F mutant in mouse pharamcodynamic model expressing JAK2 V617F mutant assessed as reduction in STAT5 phosphorylation at 2 mg/kg, po measured up to 7 hrs; type: functional, organism-based
MDA-MB-231 = assay: Antiproliferative activity against human MDA-MB-231 cells incubated for 72 hrs by [3H] thymidine incorporation assay; type: functional, cell-based
[4] = Half in dog liver microsomes; type: ADME, Canis lupus familiaris
[5] = Oral bioavailability in dog at 0.2 mg/kg; type: ADME, organism-based, Canis lupus familiaris; conditions: in vivo
Mus musculus [6] = assay: Oral bioavailability in mouse at 10 mg/kg; type: ADME, organism-based; conditions: in vivo
[7] = AUC (0 to 8 hrs) in mouse pharamcodynamic model at 5 mg/kg, po; type: ADME, organism-based; design: dose 5 mg/kg, time < 8 hr, route oral; conditions: in vivo
Rattus norvegicus [8] = assay: Toxicity in rat assessed as drug tolerability up to 100 mg/kg; type: organism-based; conditions: in vivo
[9] = Half in mouse liver microsomes; type: ADME
Mus musculus [10] = assay: Inhibition of JAK2 in mouse pharamcodynamic model assessed as reduction in STAT5 phosphorylation at 30 mg/kg, po after 18 hrs; type: functional, organism-based
Rattus norvegicus [11] = assay: Toxicity in rat assessed as drug tolerability at 15 mg/kg/day for 2 weeks; type: organism-based; conditions: in vivo, 336 h
JAK3/JAK1 = JAK3/JAK1 (Homo sapiens, UniProt P23458+P52333); assay: Inhibition of JAK1/JAK3 in T cells (unknown origin) assessed as reduction in IL2-mediated cell proliferation; type: cell-based
Sequence of JAK3/JAK1 (P52333 whole entry): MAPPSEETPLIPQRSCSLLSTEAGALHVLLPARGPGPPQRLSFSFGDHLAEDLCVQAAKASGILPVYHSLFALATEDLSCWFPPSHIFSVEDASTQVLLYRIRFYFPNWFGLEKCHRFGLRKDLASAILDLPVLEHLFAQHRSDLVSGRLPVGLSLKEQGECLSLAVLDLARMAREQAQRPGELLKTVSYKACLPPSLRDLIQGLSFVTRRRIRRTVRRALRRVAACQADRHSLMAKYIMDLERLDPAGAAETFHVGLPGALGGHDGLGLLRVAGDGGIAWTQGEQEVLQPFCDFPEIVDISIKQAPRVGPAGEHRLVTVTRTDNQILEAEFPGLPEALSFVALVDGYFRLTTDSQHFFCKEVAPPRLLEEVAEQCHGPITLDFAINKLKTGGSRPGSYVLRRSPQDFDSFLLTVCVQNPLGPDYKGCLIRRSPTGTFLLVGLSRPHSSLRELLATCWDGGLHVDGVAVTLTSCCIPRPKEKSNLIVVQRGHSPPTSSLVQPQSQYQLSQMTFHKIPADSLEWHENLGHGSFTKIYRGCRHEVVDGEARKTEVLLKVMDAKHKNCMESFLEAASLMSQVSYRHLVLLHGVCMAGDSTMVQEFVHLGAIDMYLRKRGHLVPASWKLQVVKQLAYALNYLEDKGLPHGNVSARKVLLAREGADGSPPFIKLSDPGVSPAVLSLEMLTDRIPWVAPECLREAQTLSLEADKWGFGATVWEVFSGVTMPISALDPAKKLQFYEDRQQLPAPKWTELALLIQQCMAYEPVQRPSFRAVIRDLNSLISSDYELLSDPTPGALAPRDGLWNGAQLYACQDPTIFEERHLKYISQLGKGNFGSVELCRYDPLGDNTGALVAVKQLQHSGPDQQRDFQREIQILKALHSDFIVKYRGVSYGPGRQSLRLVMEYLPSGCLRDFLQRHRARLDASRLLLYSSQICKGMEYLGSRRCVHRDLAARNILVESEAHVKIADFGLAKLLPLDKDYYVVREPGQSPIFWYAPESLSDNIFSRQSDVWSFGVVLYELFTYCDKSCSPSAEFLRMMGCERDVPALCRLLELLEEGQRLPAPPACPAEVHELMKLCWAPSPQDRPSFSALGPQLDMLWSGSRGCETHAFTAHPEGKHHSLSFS
Sequence of JAK3/JAK1 (P23458 whole entry): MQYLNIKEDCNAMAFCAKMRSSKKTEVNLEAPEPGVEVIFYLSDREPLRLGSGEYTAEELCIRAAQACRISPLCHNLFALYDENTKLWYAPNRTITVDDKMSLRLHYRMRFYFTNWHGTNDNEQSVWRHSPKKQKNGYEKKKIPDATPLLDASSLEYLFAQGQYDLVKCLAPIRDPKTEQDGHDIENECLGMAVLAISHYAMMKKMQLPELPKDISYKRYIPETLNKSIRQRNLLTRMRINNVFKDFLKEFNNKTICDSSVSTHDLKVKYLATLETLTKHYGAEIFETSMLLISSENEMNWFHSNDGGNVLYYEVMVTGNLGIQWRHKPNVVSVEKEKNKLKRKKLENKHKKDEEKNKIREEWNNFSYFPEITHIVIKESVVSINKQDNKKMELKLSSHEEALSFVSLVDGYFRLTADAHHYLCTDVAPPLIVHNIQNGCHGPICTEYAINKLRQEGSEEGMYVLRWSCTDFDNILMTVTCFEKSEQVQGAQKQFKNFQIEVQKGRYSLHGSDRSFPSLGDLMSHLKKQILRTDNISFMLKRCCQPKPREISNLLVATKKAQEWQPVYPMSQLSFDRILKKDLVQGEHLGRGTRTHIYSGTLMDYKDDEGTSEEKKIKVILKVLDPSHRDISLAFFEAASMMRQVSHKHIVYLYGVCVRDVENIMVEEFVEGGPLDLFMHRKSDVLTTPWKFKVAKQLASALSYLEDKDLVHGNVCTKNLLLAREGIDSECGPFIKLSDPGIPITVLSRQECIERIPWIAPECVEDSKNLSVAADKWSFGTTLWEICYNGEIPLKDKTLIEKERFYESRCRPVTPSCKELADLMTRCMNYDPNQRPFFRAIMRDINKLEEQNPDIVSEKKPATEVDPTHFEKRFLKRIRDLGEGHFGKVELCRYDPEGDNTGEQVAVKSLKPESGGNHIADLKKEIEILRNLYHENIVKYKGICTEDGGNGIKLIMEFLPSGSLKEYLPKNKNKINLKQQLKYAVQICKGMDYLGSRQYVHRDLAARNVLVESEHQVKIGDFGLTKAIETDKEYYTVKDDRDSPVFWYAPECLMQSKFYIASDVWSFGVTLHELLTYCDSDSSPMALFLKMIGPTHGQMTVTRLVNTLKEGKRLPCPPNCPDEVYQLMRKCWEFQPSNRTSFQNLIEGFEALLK

[12] = Inhibition of CYP450 in human liver microsomes; type: ADME
Salmonella typhimurium = assay: Mutagenicity in Salmonella typhimurium by Ames test; type: toxicity, organism-based; conditions: salmonella enterica subsp. enterica serovar typhimurium
A549 = assay: Antiproliferative activity against human A549 cells incubated for 72 hrs by [3H] thymidine incorporation assay; type: functional, cell-based
hERG [13] = molecular target: T1, hERG (Homo sapiens, UniProt Q12809); assay: Inhibition of human ERG channel at 30 uM
T1 sequence (Q12809 whole entry): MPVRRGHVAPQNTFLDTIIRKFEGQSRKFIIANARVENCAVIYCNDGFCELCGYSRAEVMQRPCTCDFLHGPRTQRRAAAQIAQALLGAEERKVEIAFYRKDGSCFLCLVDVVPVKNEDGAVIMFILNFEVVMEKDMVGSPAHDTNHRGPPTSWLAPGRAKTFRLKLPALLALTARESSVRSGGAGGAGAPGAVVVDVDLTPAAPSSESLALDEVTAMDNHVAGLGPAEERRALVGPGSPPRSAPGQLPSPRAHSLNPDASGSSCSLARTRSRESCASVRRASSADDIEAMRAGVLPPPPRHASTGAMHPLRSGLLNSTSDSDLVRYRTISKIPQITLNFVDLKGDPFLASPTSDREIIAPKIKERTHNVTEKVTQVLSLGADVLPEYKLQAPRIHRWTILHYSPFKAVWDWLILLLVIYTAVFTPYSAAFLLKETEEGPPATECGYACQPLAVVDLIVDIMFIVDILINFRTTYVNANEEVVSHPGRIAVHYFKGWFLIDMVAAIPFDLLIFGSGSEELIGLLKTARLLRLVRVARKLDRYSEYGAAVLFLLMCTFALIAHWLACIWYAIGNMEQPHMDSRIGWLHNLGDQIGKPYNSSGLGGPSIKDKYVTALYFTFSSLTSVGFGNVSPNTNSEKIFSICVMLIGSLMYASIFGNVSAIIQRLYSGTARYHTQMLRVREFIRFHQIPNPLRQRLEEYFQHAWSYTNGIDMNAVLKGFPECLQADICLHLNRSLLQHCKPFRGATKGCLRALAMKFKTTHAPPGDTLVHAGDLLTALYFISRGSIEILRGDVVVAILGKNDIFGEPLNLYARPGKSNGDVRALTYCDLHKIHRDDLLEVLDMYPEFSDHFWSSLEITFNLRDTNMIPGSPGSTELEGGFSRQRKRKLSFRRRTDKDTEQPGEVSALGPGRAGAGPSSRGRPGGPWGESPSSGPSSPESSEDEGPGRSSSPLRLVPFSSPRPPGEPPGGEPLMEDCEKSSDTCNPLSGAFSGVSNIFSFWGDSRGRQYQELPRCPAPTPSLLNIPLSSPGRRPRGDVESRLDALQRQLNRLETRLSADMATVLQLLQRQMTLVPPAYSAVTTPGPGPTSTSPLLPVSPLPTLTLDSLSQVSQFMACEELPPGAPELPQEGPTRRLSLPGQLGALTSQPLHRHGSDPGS

[14] = AUC (0 to 8 hrs) in mouse pharamcodynamic model at 30 mg/kg, po; type: ADME, organism-based; design: dose 30 mg/kg, time < 8 hr, route oral; conditions: in vivo
[15] = Toxicity in micronucleus (unknown origin) assessed as induction of clastogenesis by micronucleus assay
[16] = Antiproliferative activity against mouse CTLL-2 cells incubated for 72 hrs by [3H] thymidine incorporation assay; type: functional, cell-based
[17] = Oral bioavailability in cynomolgus monkey at 1 mg/kg; type: ADME, organism-based, Macaca fascicularis; conditions: in vivo
[18] = molecular target: T2, Tyrosine-protein kinase JAK2 (Homo sapiens, UniProt O60674); assay: Inhibition of recombinant JAK2 (unknown origin) using 5-FAM-KKKKEEIYFFFG-OH substrate and ATP incubated for 180 mins by […] method
T2 sequence (O60674 whole entry): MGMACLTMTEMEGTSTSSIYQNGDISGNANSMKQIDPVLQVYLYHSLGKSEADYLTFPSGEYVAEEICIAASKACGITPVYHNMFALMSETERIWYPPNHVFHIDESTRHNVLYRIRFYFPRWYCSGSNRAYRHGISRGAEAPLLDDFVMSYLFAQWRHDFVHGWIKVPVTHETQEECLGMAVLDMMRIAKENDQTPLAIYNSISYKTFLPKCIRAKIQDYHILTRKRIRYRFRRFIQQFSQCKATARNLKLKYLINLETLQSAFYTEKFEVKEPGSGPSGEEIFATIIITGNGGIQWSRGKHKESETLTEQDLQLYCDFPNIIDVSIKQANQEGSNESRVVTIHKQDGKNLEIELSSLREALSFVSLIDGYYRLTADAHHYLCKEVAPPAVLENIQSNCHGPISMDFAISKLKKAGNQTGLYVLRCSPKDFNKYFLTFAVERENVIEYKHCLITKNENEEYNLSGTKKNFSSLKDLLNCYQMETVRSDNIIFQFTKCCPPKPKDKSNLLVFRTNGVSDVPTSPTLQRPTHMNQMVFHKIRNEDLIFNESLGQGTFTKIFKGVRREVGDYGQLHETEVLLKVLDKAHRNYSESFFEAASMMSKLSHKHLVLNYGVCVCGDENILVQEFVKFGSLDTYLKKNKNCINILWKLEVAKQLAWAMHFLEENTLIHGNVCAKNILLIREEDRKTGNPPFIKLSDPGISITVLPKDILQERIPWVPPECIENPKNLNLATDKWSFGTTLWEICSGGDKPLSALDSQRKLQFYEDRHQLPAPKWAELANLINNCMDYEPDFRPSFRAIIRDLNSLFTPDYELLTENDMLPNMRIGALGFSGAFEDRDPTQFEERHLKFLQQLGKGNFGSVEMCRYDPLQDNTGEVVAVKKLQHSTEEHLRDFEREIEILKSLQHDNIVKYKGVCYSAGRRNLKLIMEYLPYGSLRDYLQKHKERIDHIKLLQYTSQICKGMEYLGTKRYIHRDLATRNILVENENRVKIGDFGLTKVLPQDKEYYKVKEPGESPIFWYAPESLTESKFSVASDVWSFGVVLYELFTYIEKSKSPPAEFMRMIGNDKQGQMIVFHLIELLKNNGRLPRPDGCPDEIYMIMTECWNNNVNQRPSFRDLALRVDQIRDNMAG

[19] = molecular target: T3, Nuclear receptor subfamily 1 group I member 2 (Homo sapiens, UniProt O75469); assay: Activation of PXR (unknown origin); type: ADME
T3 sequence (O75469 whole entry): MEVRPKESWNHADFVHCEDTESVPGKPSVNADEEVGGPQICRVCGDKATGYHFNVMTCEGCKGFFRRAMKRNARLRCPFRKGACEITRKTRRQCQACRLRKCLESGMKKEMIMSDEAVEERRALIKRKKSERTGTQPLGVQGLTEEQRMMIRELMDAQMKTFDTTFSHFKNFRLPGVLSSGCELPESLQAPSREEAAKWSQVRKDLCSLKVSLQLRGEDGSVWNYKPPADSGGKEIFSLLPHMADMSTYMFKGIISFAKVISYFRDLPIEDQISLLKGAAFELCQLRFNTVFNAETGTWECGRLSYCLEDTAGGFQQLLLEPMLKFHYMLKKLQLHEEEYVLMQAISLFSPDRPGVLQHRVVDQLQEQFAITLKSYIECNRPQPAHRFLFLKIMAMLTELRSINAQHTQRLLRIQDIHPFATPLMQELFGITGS

[20] = Antiproliferative activity against human SET2 cells incubated for 72 hrs by [3H] thymidine incorporation assay; type: functional, cell-based; conditions: SET-2
MIA PaCa-2 = assay: Antiproliferative activity against human MIAPaCa2 cells incubated for 72 hrs by [3H] thymidine incorporation assay; type: functional, cell-based
Homo sapiens = species on record: Homo sapiens; assay: Inhibition of sodium channel (unknown origin) at 10 uM at 1 and 4 Hz stimulation by patch clamp assay
[21] = Inhibition of calcium channel (unknown origin) by patch clamp assay; design: species or system Homo sapiens
[22] = molecular target: Tyrosine-protein kinase JAK2 (Mus musculus, UniProt Q62120); assay: Inhibition of JAK2 in mouse BAF3 cells assessed as reduction in STAT5 phosphorylation incubated for 2 hrs by Western blot method; type: cell-based
Mus musculus [23] = assay: AUC (0 to 8 hrs) in mouse pharamcodynamic model at 10 mg/kg, po; type: ADME, organism-based; design: dose 10 mg/kg, time < 8 hr, route oral; conditions: in vivo
Mus musculus [24] = assay: Inhibition of JAK2 in mouse pharamcodynamic model assessed as reduction in STAT5 phosphorylation at 10 mg/kg, po measured up to 18 hrs; type: functional
[25] = molecular target: Non-receptor tyrosine-protein kinase TYK2 (Homo sapiens, UniProt P29597); assay: Inhibition of recombinant TYK2 (unknown origin) by scintillation counting method
[26] = molecular target: T2, Tyrosine-protein kinase JAK2; assay: Binding affinity to JAK2 (unknown origin) assessed as dissociation constant
[27] = AUC (0 to 24 hrs) in rat assessed as drug tolerability at 15 mg/kg/day for 2 weeks measured on day 14; type: ADME, organism-based; design: time < 24 hr, dose 15 mg/kg/day; conditions: in vivo
BaF3 = assay: Antiproliferative activity against IL3-stimulated mouse BAF3 cells incubated for 72 hrs by [3H] thymidine incorporation assay; type: functional, cell-based
hERG [28] = molecular target: T1, hERG; assay: Inhibition of human ERG at 30 uM by patch clamp assay

CCn1c(C(=O)N(C2CC2)C2CC2)cc2c3c(ncn3C)c(Nc3cc(C)n(C)n3)nc21 [BMS-911543]
half-life [1]: 69 min | half-life [2]: 49 min | inhibition (Mus musculus [3]): Active | Activity (MDA-MB-231): inactive | half-life [4]: 70 min | bioavailability [5]: 82% | F (Mus musculus [6]): 100% | AUC(0-t) at 8 h [7]: 23 µM·h | Activity (Rattus norvegicus [8]): Non-toxic | half-life [9]: 108 min | inhibition (Mus musculus [10]): Active | Activity (Rattus norvegicus [11]): Non-toxic | IC50 (JAK3/JAK1): 990 nM | IC50 [12]: > 40 µM | Activity (Salmonella typhimurium): Non-toxic | IC50 (A549): 2400 nM | inhibition at 30 µM (hERG [13]): 20% | AUC(0-t) at 8 h [14]: 109 µM·h | Activity [15]: Non-toxic | IC50 [16]: 2900 nM | bioavailability [17]: 53% | IC50 [18]: 1.1 nM | EC50 [19]: > 50 µM | IC50 [20]: 60 nM | Activity (MIA PaCa-2): inactive | inhibition (Homo sapiens): < 10% | IC50 [21]: > 80 µM | IC50 [22]: 65 nM | AUC (Mus musculus [23]): 41 µM·h | inhibition in vivo at 10 mg/kg (Mus musculus [24]): 65% | IC50 [25]: 66 nM | Kd [26]: 0.48 nM | AUC at 24 h [27]: 3200 µM·h | IC50 (BaF3): 3.5 µM | inhibition at 30 µM (hERG [28]): 20%

Source: ChEMBL document CHEMBL3621135 (ACS Med Chem Lett, 2015)
